Numbering of substitutions follows the chain as printed.
Key:
Format in all cases: cell-based
Design in all cases: expressed in transfected cells; host or cells: Xenopus laevis oocytes injected with mutant RNA (pOTV vector)
[1] = biological target: T1, GlyT2 F515W mutant (Homo sapiens, UniProt Q9Y345, F515W); experiment: Inhibitor washout time course (reversibility); settings: for Recovery at 30 Min / Half-life (transport current recovery): washout after 4 min IC50 concentration
T1 sequence (Q9Y345 1-797 F515W): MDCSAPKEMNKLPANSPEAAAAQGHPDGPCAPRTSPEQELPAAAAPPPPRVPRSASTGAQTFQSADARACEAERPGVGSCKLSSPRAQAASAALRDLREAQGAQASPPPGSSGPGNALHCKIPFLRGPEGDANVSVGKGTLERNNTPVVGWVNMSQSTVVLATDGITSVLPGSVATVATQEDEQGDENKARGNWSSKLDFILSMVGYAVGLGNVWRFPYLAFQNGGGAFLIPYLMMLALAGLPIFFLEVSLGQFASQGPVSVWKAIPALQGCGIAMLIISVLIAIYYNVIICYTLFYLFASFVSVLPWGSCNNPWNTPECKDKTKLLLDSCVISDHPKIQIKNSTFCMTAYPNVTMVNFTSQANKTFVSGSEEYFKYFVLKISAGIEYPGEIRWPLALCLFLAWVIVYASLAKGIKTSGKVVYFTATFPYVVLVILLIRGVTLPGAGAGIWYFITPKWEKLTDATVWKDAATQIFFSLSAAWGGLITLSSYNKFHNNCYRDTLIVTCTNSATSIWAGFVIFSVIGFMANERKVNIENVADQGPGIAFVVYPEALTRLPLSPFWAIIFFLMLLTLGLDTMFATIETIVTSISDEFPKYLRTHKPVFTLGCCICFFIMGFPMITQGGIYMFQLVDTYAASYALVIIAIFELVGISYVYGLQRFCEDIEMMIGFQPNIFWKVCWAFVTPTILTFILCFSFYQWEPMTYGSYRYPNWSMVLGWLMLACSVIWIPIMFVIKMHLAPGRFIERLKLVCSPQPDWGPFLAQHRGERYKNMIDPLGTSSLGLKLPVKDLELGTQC
Protocol: (§1) Reversibility of GlyT2 inhibitors was determined by applying an EC50 concentration of glycine followed by co-application of the inhibitor at an IC50 concentration once a stable current had been achieved. Inhibitors were applied for 4 min as this was sufficient time to produce substantial inhibition for each compound and allowed for their direct comparison. At the conclusion of 4 min (time 0), ND96 buffer was perfused through the recording chamber to wash the oocyte. […] Transport currents were normalized to glycine currents in the absence of inhibitor and converted to % recovery values via Y=It−It=0/Imax−It=0, where Y is % recovery, I is current in nA, Imax is the maximal current produced by the glycine EC50, and t is time in minutes. Washout kinetics were then determined by fitting % recovery values to the first-order rate equation: Y=(Y0−Plateau).e^(−Kt)+Plateau, where Y is the % recovery, Y0 is the point, which crosses the Y-axis (constrained to 0) and increases to the plateau (constrained to between 0 and 100), K is the rate constant (1/t), and t is time in minutes. […] Because of the slowly […] nature of the inhibitors, washout time courses involving cyclodextrin treatment could not be performed on the same cell. […] As these experiments could not occur on the same cell, differences in half-life and maximal recovery were analysed via an unpaired two-tailed t test.

[2] = biological target: T2, GlyT2 T512A mutant (Homo sapiens, UniProt Q9Y345, T512A); experiment: Inhibitor washout time course (reversibility); settings: for Recovery at 30 Min / Half-life (transport current recovery): washout after 4 min IC50 concentration
T2 sequence (Q9Y345 1-797 T512A): T1 sequence (Q9Y345 1-797 F515W) with T512A, W515F
Protocol: as §1

[3] = biological target: T1, GlyT2 F515W mutant; experiment: Inhibitor concentration–responses on glycine transport currents, two-electrode voltage clamp; settings: for IC50: F515W GlyT2 in Xenopus laevis oocytes
Protocol: Because of the slowly reversible nature of the compounds tested, inhibitor concentration–responses were performed cumulatively. An EC50 concentration of glycine was applied until a stable transport current was reached. EC50 concentrations of glycine were used to produce reliable currents for each transporter, and as the inhibitors are non-competitive, application of varying glycine concentrations is unlikely to affect their activity. Increasing concentrations of inhibitors were co-applied with glycine with each concentration producing a distinct plateau before the subsequent concentration was applied. Inhibitor concentration–responses were limited to a maximum concentration of 3 µM to mitigate the risk of changes to the free drug concentration because of micelle formation. Currents after the plateau of each inhibitor concentration were normalized to the current produced by application of glycine alone and fit using the method of least squares: Y=Bottom+(Top−Bottom)/(1+10^[X−LogIC50]), where X is log [inhibitor], Y is current normalized to glycine in the absence of inhibitor, and Top and Bottom are the maximal and minimal plateaus, respectively. The method of least squares was constrained to have the bottom value >0 and the hill slope as −1, enabling the calculation of IC50 values and the extent of inhibition produced by the maximal concentration applied.
IC50 values are presented as the mean and 95% confidence interval, whereas inhibition values are presented as the mean ± SEM. Data sets are n ≥ 5 from two batches of oocytes.

Compound	Increase of recovery at 30 min compared to WT ([1]; F515W vs WT)	Recovery at 30 Min ([1]; F515W)	Increase of recovery after 30 min compared to WT ([2]; T512A vs WT)	Recovery at 30 Min ([2]; T512A)	Inhibition at 1 µM (column head 3 μM, footnote b) ([3]; F515W, 1 µM)	Increase in recovery of current 30 min after application, vs WT ([1]; F515W)	Half-life (transport current recovery) ([1]; F515W)	Increase in recovery of current 30 min after application, vs WT ([2]; T512A)	Half-life (transport current recovery) ([2]; T512A)	IC50 [3]	Inhibition at 3 μM ([3]; F515W)
CCCCCCCC/C=C\CCCCCCCC(=O)O[C@H](CC(=O)[O-])C[N+](C)(C)C [Oleoyl-L-Carnitine, oleoyl-L-carnitine]	1.3 fold	60.1%	1.8 fold	79.4%	57.6 ± 2.3^b %						
CCCCCCCC/C=C\CCCCCCCC(=O)N[C@@H](CC(C)C)C(=O)O [Oleoyl-L-Leucine, oleoyl-L-leucine]		70.1 ± 1.9 %		76.2 ± 4.1 %		19.0%	2.0 ± 0.2 min	25.1%	1.7 ± 0.3 min	400 nM	86.7 ± 1.7 %
CCCCCCCC/C=C\CCCCCCCC(=O)N[C@@H](CCCCN)C(=O)O [Oleoyl-L-Lysine, oleoyl-L-lysine]		57.8 ± 4.1%		63.5 ± 2.0%						689 nM	85.3 ± 6.4%
CCCCCCCC/C=C\CCCCCCCC(=O)N[C@@H](Cc1c[nH]c2ccccc12)C(=O)O [Oleoyl-L-Tryptophan, oleoyl-L-tryptophan]		No Recovery		No Recovery			No Recovery		No Recovery	128 nM	82.0 ± 3.9%

From article PMC9873984, “Membrane cholesterol regulates inhibition and substrate transport by the glycine transporter, GlyT2” (Life Science Alliance, 2023)
